Laboratory results reported in patent publication US20140288043A1, “PYRAZOLOPYRIDINE COMPOUNDS” (Genentech, Inc., priority 2013, published 2014).

Biological target: LRRK2 (Homo sapiens, UniProt Q5S007)
Assay: LRRK2 protein kinase assay ([γ-33P] ATP, peptide substrate), KI values of Table 1
Type: biochemical
Settings: LRRK2 affinity values
Description: All LRRK2 protein kinases were of human origin and were sourced from Invitrogen Corporation (Carlsbad, Calif. 92008 USA) unless otherwise indicated. The active mutant used was recombinant human, catalytic domain (amino acids 970-2527) containing a G2019S mutation, GST-tagged, expressed in insect cells (Invitrogen Cat#PV4881). The wild type used was recombinant human, catalytic domain (amino acids 970-2527) GST-tagged, expressed in insect cells (Invitrogen Cat#PV4873). The kinase dead mutant used was recombinant human, catalytic domain (amino acids 970-2527) containing a D1994A mutation, GST-tagged, expressed in insect cells (Invitrogen Cat#PM4041AE). No special measures were taken to activate any of the kinases.
All assays were carried out at room temperature (˜21° C.) and were linear with respect to time and enzyme concentration under the conditions used. Assays were performed for 180 min in a 96 well format. LRRK2 was present at a concentration of approximately 5 nM. The enzyme was diluted and assayed in 50 mM Tris-HCl pH7.5, 0.1 mM EGTA, 1 mM DTT and 10 mM MgCl2. The concentration of magnesium chloride in the assay was 10 mM. The [γ-33P] ATP (0.4 μCi/well) was used at 134 uM for G2019S mutant and at 57 μM for the wild type kinase in order to be at Km. The peptide substrate in the assay was […] at 100 μM.
The assays were initiated with Mg/ATP and stopped by the addition of 25 μl/well 50% orthophosphoric acid. Reactions were harvested onto Whatman P81 Unifilter Plates (Fisher Scientific. Loughborough, LE115RG, UK. Cat# FDU-105-020U) using a Tomtec harvester. (Tomtec Hamden, Conn. 06514. USA) Plates were counted using a Perkin Elmer Top Count NX7. (Perkin Elmer, Shelton Conn. 06484-4794 USA)
IC50 values of inhibitors were determined after carrying out assays at 10 different concentrations of each compound in duplicate.

Sequence of LRRK2 (Q5S007 whole entry G2019S, form open): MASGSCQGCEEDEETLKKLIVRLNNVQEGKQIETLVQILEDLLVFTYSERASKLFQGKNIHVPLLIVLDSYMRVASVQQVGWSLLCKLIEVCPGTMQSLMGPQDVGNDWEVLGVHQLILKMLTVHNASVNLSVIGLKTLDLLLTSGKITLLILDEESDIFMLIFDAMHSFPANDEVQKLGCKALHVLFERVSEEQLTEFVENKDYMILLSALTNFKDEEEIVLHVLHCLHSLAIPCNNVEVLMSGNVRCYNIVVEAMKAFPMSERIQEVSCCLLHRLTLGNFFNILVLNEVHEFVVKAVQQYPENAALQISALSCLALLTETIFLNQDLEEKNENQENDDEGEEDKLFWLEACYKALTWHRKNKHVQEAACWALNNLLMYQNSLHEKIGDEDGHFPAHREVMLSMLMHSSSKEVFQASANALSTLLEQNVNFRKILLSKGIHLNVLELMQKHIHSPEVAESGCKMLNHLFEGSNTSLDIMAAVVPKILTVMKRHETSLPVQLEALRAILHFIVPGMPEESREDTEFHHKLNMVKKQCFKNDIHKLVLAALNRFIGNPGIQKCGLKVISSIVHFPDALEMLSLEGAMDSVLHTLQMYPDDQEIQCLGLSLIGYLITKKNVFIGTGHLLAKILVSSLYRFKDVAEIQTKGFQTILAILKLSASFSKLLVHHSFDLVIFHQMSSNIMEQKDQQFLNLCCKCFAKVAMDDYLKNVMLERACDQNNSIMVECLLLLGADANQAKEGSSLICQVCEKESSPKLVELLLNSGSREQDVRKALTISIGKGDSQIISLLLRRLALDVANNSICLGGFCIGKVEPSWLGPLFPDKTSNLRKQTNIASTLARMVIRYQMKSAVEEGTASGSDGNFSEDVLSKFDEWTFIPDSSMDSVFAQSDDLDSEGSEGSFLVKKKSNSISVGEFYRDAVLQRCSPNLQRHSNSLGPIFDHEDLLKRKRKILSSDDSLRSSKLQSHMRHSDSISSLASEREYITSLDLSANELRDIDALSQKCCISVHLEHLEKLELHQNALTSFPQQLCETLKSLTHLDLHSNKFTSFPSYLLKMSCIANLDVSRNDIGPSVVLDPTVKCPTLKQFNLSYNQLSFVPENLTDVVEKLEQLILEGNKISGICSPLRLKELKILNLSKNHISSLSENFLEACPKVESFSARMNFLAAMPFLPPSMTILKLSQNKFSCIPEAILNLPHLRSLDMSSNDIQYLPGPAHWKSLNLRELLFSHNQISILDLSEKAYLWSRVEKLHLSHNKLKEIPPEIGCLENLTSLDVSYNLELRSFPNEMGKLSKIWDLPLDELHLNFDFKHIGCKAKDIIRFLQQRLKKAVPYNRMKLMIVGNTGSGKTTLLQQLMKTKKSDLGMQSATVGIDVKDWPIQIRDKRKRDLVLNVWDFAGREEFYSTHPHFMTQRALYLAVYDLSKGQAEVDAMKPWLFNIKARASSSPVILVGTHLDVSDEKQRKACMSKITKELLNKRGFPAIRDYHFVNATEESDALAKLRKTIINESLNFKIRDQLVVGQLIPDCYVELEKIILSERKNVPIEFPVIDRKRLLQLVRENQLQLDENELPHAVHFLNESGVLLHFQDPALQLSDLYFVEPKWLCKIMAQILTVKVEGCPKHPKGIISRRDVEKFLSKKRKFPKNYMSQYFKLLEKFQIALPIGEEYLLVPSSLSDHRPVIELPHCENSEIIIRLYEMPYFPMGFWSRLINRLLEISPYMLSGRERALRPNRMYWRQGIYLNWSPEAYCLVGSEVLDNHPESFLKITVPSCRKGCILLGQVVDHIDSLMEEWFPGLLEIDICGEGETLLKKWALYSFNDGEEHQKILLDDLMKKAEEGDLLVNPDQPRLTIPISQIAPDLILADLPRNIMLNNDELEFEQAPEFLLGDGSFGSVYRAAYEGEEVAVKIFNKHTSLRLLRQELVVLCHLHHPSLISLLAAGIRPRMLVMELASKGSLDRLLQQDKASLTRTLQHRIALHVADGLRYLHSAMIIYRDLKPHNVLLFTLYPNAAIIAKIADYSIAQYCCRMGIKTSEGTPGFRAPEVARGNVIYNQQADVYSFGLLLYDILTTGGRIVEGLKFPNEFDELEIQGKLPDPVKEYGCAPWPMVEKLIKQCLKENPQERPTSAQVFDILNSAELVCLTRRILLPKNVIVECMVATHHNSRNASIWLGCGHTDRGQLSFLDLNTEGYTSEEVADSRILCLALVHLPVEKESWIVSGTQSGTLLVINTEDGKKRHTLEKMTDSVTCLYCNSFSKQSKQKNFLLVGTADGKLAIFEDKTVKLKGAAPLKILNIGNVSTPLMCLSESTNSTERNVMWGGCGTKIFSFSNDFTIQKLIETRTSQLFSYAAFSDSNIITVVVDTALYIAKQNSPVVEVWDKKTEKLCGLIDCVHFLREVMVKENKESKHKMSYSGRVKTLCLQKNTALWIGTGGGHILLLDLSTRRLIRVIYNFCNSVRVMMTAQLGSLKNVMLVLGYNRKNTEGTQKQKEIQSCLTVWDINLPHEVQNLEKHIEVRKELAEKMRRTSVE

SMILES	Ki [nM]
CCc1cc(-c2n[nH]c3ccnc(NC4CCOCC4)c23)nn1C [Compound 1, 3-(5-ethyl-1-methyl-1H-pyrazol-3-yl)-N-(tetrahydro-2H-pyran-4-yl)-1H-pyrazolo[4,3-c]pyridin-4-amine]	0.5
CC(C)Nc1nccc2[nH]nc(-c3nccc(N4CCOCC4)n3)c12 [Compound 2, N-isopropyl-3-(4-morpholinopyrimidin-2-yl)-1H-pyrazolo[4,3-c]pyridin-4-amine]	78.5
CC(C)Nc1nccc2[nH]nc(-c3cc(N4CCOCC4)ccn3)c12 [Compound 3, N-isopropyl-3-(4-morpholinopyridin-2-yl)-1H-pyrazolo[4,3-c]pyridin-4-amine]	1.6
CC(C)Nc1nccc2[nH]nc(-c3cc(N4CCOCC4)ncn3)c12 [Compound 4, N-isopropyl-3-(6-morpholinopyrimidin-4-yl)-1H-pyrazolo[4,3-c]pyridin-4-amine]	1.1
CC(C)n1cc(-c2n[nH]c3ccnc(NC4CCOCC4)c23)nn1 [Compound 5, 3-(1-isopropyl-1H-1,2,3-triazol-4-yl)-N-(tetrahydro-2H-pyran-4-yl)-1H-pyrazolo[4,3-c]pyridin-4-amine]	1.7
CC(C)n1cnc(-c2n[nH]c3ccnc(NC4CCOCC4)c23)c1 [Compound 6, 3-(1-isopropyl-1H-imidazol-4-yl)-N-(tetrahydro-2H-pyran-4-yl)-1H-pyrazolo[4,3-c]pyridin-4-amine]	3.3
CC(C)Nc1nccc2[nH]nc(-c3cn(C(C)C)nn3)c12 [Compound 7, N-isopropyl-3-(1-isopropyl-1H-1,2,3-triazol-4-yl)-1H-pyrazolo[4,3-c]pyridin-4-amine]	4.4
CC(C)Nc1nccc2[nH]nc(-c3cn(C)nn3)c12 [Compound 8, N-isopropyl-3-(1-methyl-1H-1,2,3-triazol-4-yl)-1H-pyrazolo[4,3-c]pyridin-4-amine]	5.2
CCNc1nccc2[nH]nc(-c3cn(C(C)C)nn3)c12 [Compound 9, N-ethyl-3-(1-isopropyl-1H-1,2,3-triazol-4-yl)-1H-pyrazolo[4,3-c]pyridin-4-amine]	13.1
CCNc1nccc2[nH]nc(-c3cn(C)nn3)c12 [Compound 10, N-ethyl-3-(1-methyl-1H-1,2,3-triazol-4-yl)-1H-pyrazolo[4,3-c]pyridin-4-amine]	14.5
CCc1cc(-c2n[nH]c3ccnc(NC(C)C)c23)nn1C [Compound 11, 3-(5-ethyl-1-methyl-1H-pyrazol-3-yl)-N-isopropyl-1H-pyrazolo[4,3-c]pyridin-4-amine]	3.5
CCNc1nccc2[nH]nc(-c3cn(C)cn3)c12 [Compound 12, N-ethyl-3-(1-methyl-1H-imidazol-4-yl)-1H-pyrazolo[4,3-c]pyridin-4-amine]	33.7
CC(C)Nc1nccc2[nH]nc(-c3ccccn3)c12 [Compound 13, N-isopropyl-3-(pyridin-2-yl)-1H-pyrazolo[4,3-c]pyridin-4-amine]	11
CCNc1nccc2[nH]nc(-c3cn(CCOC)nn3)c12 [Compound 14, N-ethyl-3-(1-(2-methoxyethyl)-1H-1,2,3-triazol-4-yl)-1H-pyrazolo[4,3-c]pyridin-4-amine]	22.5
CC(C)Nc1nccc2[nH]nc(-c3ccncn3)c12 [Compound 15, N-isopropyl-3-(pyrimidin-4-yl)-1H-pyrazolo[4,3-c]pyridin-4-amine]	20.9
CCNc1nccc2[nH]nc(-c3ccccn3)c12 [Compound 16, N-ethyl-3-(pyridin-2-yl)-1H-pyrazolo[4,3-c]pyridin-4-amine]	66.4
c1ccc(-c2n[nH]c3ccnc(NC4CCOCC4)c23)nc1 [Compound 17, 3-(pyridin-2-yl)-N-(tetrahydro-2H-pyran-4-yl)-1H-pyrazolo[4,3-c]pyridin-4-amine]	3.1
c1cc(-c2n[nH]c3ccnc(NC4CCOCC4)c23)ncn1 [Compound 18, 3-(pyrimidin-4-yl)-N-(tetrahydro-2H-pyran-4-yl)-1H-pyrazolo[4,3-c]pyridin-4-amine]	6
CCNc1nccc2[nH]nc(-c3ccncn3)c12 [Compound 19, N-ethyl-3-(pyrimidin-4-yl)-1H-pyrazolo[4,3-c]pyridin-4-amine]	152
CC(C)Nc1nccc2[nH]nc(-c3cc(C(F)(F)F)ccn3)c12 [Compound 20, N-isopropyl-3-(4-(trifluoromethyl)pyridin-2-yl)-1H-pyrazolo[4,3-c]pyridin-4-amine]	1.6

SMILES	Ki [nM]
CCNc1nccc2[nH]nc(-c3cc(C(F)(F)F)ccn3)c12 [Compound 21, N-ethyl-3-(4-(trifluoromethyl)pyridin-2-yl)-1H-pyrazolo[4,3-c]pyridin-4-amine]	9.4
FC(F)(F)c1cc(-c2n[nH]c3ccnc(NC4CCOCC4)c23)ncn1 [Compound 22, N-(tetrahydro-2H-pyran-4-yl)-3-(6-(trifluoromethyl)pyrimidin-4-yl)-1H-pyrazolo[4,3-c]pyridin-4-amine]	2.9
FC(F)(F)c1ccnc(-c2n[nH]c3ccnc(NC4CCOCC4)c23)c1 [Compound 23, N-(tetrahydro-2H-pyran-4-yl)-3-(4-(trifluoromethyl)pyridin-2-yl)-1H-pyrazolo[4,3-c]pyridin-4-amine]	0.4
CC(C)Nc1nccc2[nH]nc(-c3cc(C(F)(F)F)ncn3)c12 [Compound 24, N-isopropyl-3-(6-(trifluoromethyl)pyrimidin-4-yl)-1H-pyrazolo[4,3-c]pyridin-4-amine]	9.7
CCNc1nccc2[nH]nc(-c3cc(C#N)ccn3)c12 [Compound 25, 2-(4-(ethylamino)-1H-pyrazolo[4,3-c]pyridin-3-yl)isonicotinonitrile]	14.2
N#Cc1ccnc(-c2n[nH]c3ccnc(NC4CCOCC4)c23)c1 [Compound 26, 2-(4-((tetrahydro-2H-pyran-4-yl)amino)-1H-pyrazolo[4,3-c]pyridin-3-yl)isonicotinonitrile]	3.8
CCNc1nccc2[nH]nc(-c3cc(C(F)(F)F)ncn3)c12 [Compound 27, N-ethyl-3-(6-(trifluoromethyl)pyrimidin-4-yl)-1H-pyrazolo[4,3-c]pyridin-4-amine]	31.8
Cc1cccc(-c2n[nH]c3ccnc(NC4CCOCC4)c23)n1 [Compound 28, 3-(6-methylpyridin-2-yl)-N-(tetrahydro-2H-pyran-4-yl)-1H-pyrazolo[4,3-c]pyridin-4-amine]	1.8
Clc1ccnc(-c2n[nH]c3ccnc(NC4CCOCC4)c23)c1 [Compound 29, 3-(4-chloropyridin-2-yl)-N-(tetrahydro-2H-pyran-4-yl)-1H-pyrazolo[4,3-c]pyridin-4-amine]	0.7
CC(C)Nc1nccc2[nH]nc(-c3cc(Cl)ccn3)c12 [Compound 30, 3-(4-chloropyridin-2-yl)-N-isopropyl-1H-pyrazolo[4,3-c]pyridin-4-amine]	2.5
CC(C)Nc1nccc2[nH]nc(-c3cc(C#N)ccn3)c12 [Compound 31, 2-(4-(isopropylamino)-1H-pyrazolo[4,3-c]pyridin-3-yl)isonicotinonitrile]	2.3
CC(C)Nc1nccc2[nH]nc(-n3cc(C(F)(F)F)cn3)c12 [Compound 32, N-isopropyl-3-(4-(trifluoromethyl)-1H-pyrazol-1-yl)-1H-pyrazolo[4,3-c]pyridin-4-amine]	9.1
Cc1nccc(-c2n[nH]c3ccnc(NC4CCOCC4)c23)n1 [Compound 33, 3-(2-methylpyrimidin-4-yl)-N-(tetrahydro-2H-pyran-4-yl)-1H-pyrazolo[4,3-c]pyridin-4-amine]	1
FC1(F)CCC(Nc2nccc3[nH]nc(-c4ccccn4)c23)CC1 [Compound 34, N-(4,4-difluorocyclohexyl)-3-(pyridin-2-yl)-1H-pyrazolo[4,3-c]pyridin-4-amine]	6.4
CC(C)Nc1nccc2[nH]nc(-c3cc(-c4cnn(C)c4)ccn3)c12 [Compound 35, N-isopropyl-3-(4-(1-methyl-1H-pyrazol-4-yl)pyridin-2-yl)-1H-pyrazolo[4,3-c]pyridin-4-amine]	0.8
CC(C)Nc1nccc2[nH]nc(-c3cc(-c4ccnn4C)ccn3)c12 [Compound 36, N-isopropyl-3-(4-(1-methyl-1H-pyrazol-5-yl)pyridin-2-yl)-1H-pyrazolo[4,3-c]pyridin-4-amine]	3.7
CC(C)Nc1nccc2[nH]nc(-c3cc(-c4cccnc4F)ccn3)c12 [Compound 37, 3-(2-fluoro-[3,4′-bipyridin]-2′-yl)-N-isopropyl-1H-pyrazolo[4,3-c]pyridin-4-amine]	3.1
FC1(F)CCC(Nc2nccc3[nH]nc(-c4ccncn4)c23)CC1 [Compound 38, N-(4,4-difluorocyclohexyl)-3-(pyrimidin-4-yl)-1H-pyrazolo[4,3-c]pyridin-4-amine]	16.4
CC(C)Nc1nccc2[nH]nc(-c3cc(C4CCOCC4)ccn3)c12 [Compound 39, N-isopropyl-3-(4-(tetrahydro-2H-pyran-4-yl)pyridin-2-yl)-1H-pyrazolo[4,3-c]pyridin-4-amine]	3.9
